From US4231928A, “Antibacterial agents” (priority 1979, dated 1980)
Like-named read-outs stand apart in the source and are kept apart here.

Columns and labels:
E. cloacae = assay: Serial twofold agar dilution (Mueller-Hinton agar), E. cloacae; format: cell-based; conditions: Enterobacter cloacae
Description: (§1) The Minimum Inhibitory Concentrations (MIC) for sodium 6-[D-(-)-α-phenyl-α-(7-hydroxy-4-oxo-4H-pyrimido[1,2-b]pyridazin-3-ylcarboxamido)acetamido]penicillanate (BB-P598) and sulbenicillin were determined by the serial twofold agar dilution method using Steers' apparatus on Mueller-Hinton agar plates against 31 test organisms for the primary screening (Table 1) and also against 61 strains of Pseudomonas aeruginosa for the secondary evaluation (Table 2).
(§2) Minimum Inhibitory Concentrations (MIC) for sodium 6-[D-(-)-α-phenyl-α-(7-hydroxy-4-oxo-4H-pyrimido[1,2-b]pyridazin-3-ylcarboxamido)acetamido]pencillanate (BB-P598), sodium 6-[D-(-)-α-(4-hydroxyphenyl)-α-(7-hydroxy-4-oxo-4H-pyrimido[1,2-b]pyridazin-3-ylcarboxamido)acetamido]-penicillanate (BB-P642) and carbenicillin were determined by the serial twofold agar dilution method using Steers' apparatus on Mueller-Hinton agar plates against 31 tests organisms (Table 8) and also against 61 strains of Pseudomonas aeruginosa (Table 9). In terms of mean % relative activity compared with carbenicillin, compounds BB-B598 and BB-P642 were 856% and 1319% as active as carbenicillin against the 61 Pseudomonas strains of Table 9.

P. morganii = assay: Serial twofold agar dilution (Mueller-Hinton agar), P. morganii; format: cell-based; conditions: Morganella morganii, P. morganii A9553, Table 8, read-out: MIC
Description: as §1, §2

E. coli = assay: Serial twofold agar dilution (Mueller-Hinton agar), E. coli; format: cell-based; conditions: Escherichia coli
Description: as §1, §2

P. vulgaris = assay: Serial twofold agar dilution (Mueller-Hinton agar), P. vulgaris; format: cell-based; conditions: Proteus vulgaris, P. vulgaris A9539, Table 8, read-out: MIC
Description: as §1, §2

Pseudomonas sp. = assay: Serial twofold agar dilution (Mueller-Hinton agar), Pseudomonas sp.; format: cell-based; conditions: Pseudomonas sp. A20358, Table 8, read-out: MIC
Description: as §1, §2

S. marcescens = assay: Serial twofold agar dilution (Mueller-Hinton agar), S. marcescens; format: cell-based; conditions: Serratia marcescens, S. marcescens A20019, Table 8
Description: as §1, §2

[1] = Mouse blood levels after subcutaneous administration; conditions: in vivo, sc, 20 mg/kg
Description: Mouse blood levels of BB-[…] and BB-[…] were determined by subcutaneous administration of 20 mg/kg of the penicillin to groups of three mice. Blood samples collected from orbital sinuses were assayed by the paper disk agar-diffusion method on Sarcina lutea PC1 1001 plates.

S. enteritidis = assay: Serial twofold agar dilution (Mueller-Hinton agar), S. enteritidis; format: cell-based; conditions: Salmonella enterica, S. enteritidis A9531, Table 8, read-out: MIC
Description: as §1, §2

K. pneumoniae = assay: Serial twofold agar dilution (Mueller-Hinton agar), K. pneumoniae; format: cell-based; conditions: Klebsiella pneumoniae, K. pneumoniae A9977, Table 8, read-out: MIC
Description: as §1, §2

S. aureus = assay: Serial twofold agar dilution (Mueller-Hinton agar), S. aureus; format: cell-based; conditions: Staphylococcus aureus
Description: as §1, §2

Klebsiella sp. = assay: Serial twofold agar dilution (Mueller-Hinton agar), Klebsiella sp.; format: cell-based; conditions: Klebsiella sp. A20452, Mueller-Hinton agar, Table 8, read-out: MIC
Description: as §1, §2

P. mirabilis = assay: Serial twofold agar dilution (Mueller-Hinton agar), P. mirabilis; format: cell-based; conditions: Proteus mirabilis
Description: as §1, §2

Pseudomonas aeruginosa = assay: Serial twofold agar dilution (Mueller-Hinton agar), P. aeruginosa; format: cell-based; conditions: for MIC: Pseudomonas aeruginosa
Description: as §1, §2

## CC1(C)S[C@@H]2[C@H](NC(=O)[C@H](NC(=O)c3cnc4ccc(O)nn4c3=O)c3ccc(O)cc3)C(=O)N2[C@H]1C(=O)O [BB-P642, Sodium 6-[D-(-)-α-(4-hydroxyphenyl)-α-(7-hydroxy-4-oxo-4H-pyrimido[1,2-b]pyridazin-3-ylcarboxamido)acetamido]-penicillanate]
E. cloacae; E. cloacae A9656, Table 8
  MIC: 25 µg/mL
E. cloacae; E. cloacae A9657, Table 8
  MIC: 100 µg/mL
E. cloacae; E. cloacae A9659, Table 8
  MIC: 25 µg/mL
P. morganii
  MIC: > 100 µg/mL
E. coli; E. coli A9635, Table 8, read-out: MIC
  MIC: 12.5 µg/mL
E. coli; E. coli A9844, Table 8, read-out: MIC
  MIC: 3.1 µg/mL
E. coli; E. coli A20366, Table 8, read-out: MIC
  MIC: > 100 µg/mL
E. coli; E. coli A20520, Table 8, read-out: MIC
  MIC: 6.3 µg/mL
E. coli; E. coli A20664, Table 8, read-out: MIC
  MIC: 1.6 µg/mL
E. coli; E. coli A20732, Table 8, read-out: MIC
  MIC: 100 µg/mL
E. coli; E. coli A20898, Table 8, read-out: MIC
  MIC: > 100 µg/mL
E. coli; E. coli Juhl A15119, Table 8, read-out: MIC
  MIC: 6.3 µg/mL
E. coli; E. coli NIHJ, Table 8, read-out: MIC
  MIC: 3.1 µg/mL
P. vulgaris
  MIC: 50 µg/mL
Pseudomonas sp.
  MIC: 0.4 µg/mL
S. marcescens
  MIC: > 100 µg/mL
[1]
  concentration at 0.25 h: 18000 ng/mL
  concentration at 0.5 h: 13500 ng/mL
  concentration at 1 h: 5200 ng/mL
S. enteritidis
  MIC: 3.1 µg/mL
K. pneumoniae
  MIC: 6.3 µg/mL
S. aureus; S. aureus A15097, Table 8, read-out: MIC
  MIC: > 100 µg/mL
S. aureus; S. aureus A20239, Table 8, read-out: MIC
  MIC: 25 µg/mL
S. aureus; S. aureus A20240, Table 8, read-out: MIC
  MIC: 12.5 µg/mL
S. aureus; S. aureus A20701, Table 8, read-out: MIC
  MIC: > 100 µg/mL
S. aureus; S. aureus BX-1633 A9606, Table 8, read-out: MIC
  MIC: 25 µg/mL
S. aureus; S. aureus Smith A9537, Table 8, read-out: MIC
  MIC: 3.1 µg/mL
Klebsiella sp.
  MIC: 12.5 µg/mL
P. mirabilis
  MIC: 3.1 µg/mL
Pseudomonas aeruginosa; 61 strains of P. aeruginosa, Table 9
  Mean % relative activity compared with carbenicillin: 1319%
Pseudomonas aeruginosa; 61 strains of P. aeruginosa, Table 9, read-out: Geometric mean of MIC
  MIC: 2.27 µg/mL
Pseudomonas aeruginosa; A20229, Mueller-Hinton agar, Table 8, read-out: MIC
  MIC: 0.4 µg/mL
Pseudomonas aeruginosa; ATCC19660, Pa-14 ATCC 19660 A20325, Mueller-Hinton agar, Table 9, read-out: MIC
  MIC: 1.6 µg/mL
Pseudomonas aeruginosa; GN315, Pa-27 GN315 A21294, Mueller-Hinton agar, Table 9, read-out: MIC
  MIC: 0.8 µg/mL
Pseudomonas aeruginosa; GN4925, Pa-45 GN 4925, Mueller-Hinton agar, Table 9, read-out: MIC
  MIC: 3.1 µg/mL
Pseudomonas aeruginosa; P. aeruginosa A9843, Mueller-Hinton agar, Table 8, read-out: MIC
  MIC: 1.6 µg/mL
Pseudomonas aeruginosa; P. aeruginosa A9930, Mueller-Hinton agar, Table 8, read-out: MIC
  MIC: 1.6 µg/mL
Pseudomonas aeruginosa; P. aeruginosa A15150, Mueller-Hinton agar, Table 8, read-out: MIC
  MIC: 0.8 µg/mL
Pseudomonas aeruginosa; P. aeruginosa A20717, Mueller-Hinton agar, Table 8, read-out: MIC
  MIC: 3.1 µg/mL
Pseudomonas aeruginosa; Pa-2 V.A A9923, Mueller-Hinton agar, Table 9, read-out: MIC
  MIC: 1.6 µg/mL
Pseudomonas aeruginosa; Pa-3 1449 V.A A9930, Mueller-Hinton agar, Table 9, read-out: MIC
  MIC: 1.6 µg/mL
Pseudomonas aeruginosa; Pa-4 H9, D113 A21295, Mueller-Hinton agar, Table 9, read-out: MIC
  MIC: 3.1 µg/mL
Pseudomonas aeruginosa; Pa-5 M4865, K.C A15150, Mueller-Hinton agar, Table 9, read-out: MIC
  MIC: 1.6 µg/mL
Pseudomonas aeruginosa; Pa-6 No. 5 Levitan A15194, Mueller-Hinton agar, Table 9, read-out: MIC
  MIC: 12.5 µg/mL
Pseudomonas aeruginosa; Pa-10 A21479, Mueller-Hinton agar, Table 9, read-out: MIC
  MIC: > 100 µg/mL
Pseudomonas aeruginosa; Pa-11 A20616, Mueller-Hinton agar, Table 9, read-out: MIC
  MIC: 1.6 µg/mL
Pseudomonas aeruginosa; Pa-12 A20653, Mueller-Hinton agar, Table 9, read-out: MIC
  MIC: 1.6 µg/mL
Pseudomonas aeruginosa; Pa-15 A20717, Mueller-Hinton agar, Table 9, read-out: MIC
  MIC: 6.3 µg/mL
Pseudomonas aeruginosa; Pa-16 #130 A20718, Mueller-Hinton agar, Table 9, read-out: MIC
  MIC: 0.4 µg/mL
Pseudomonas aeruginosa; Pa-17 H6, D114, Mueller-Hinton agar, Table 9, read-out: MIC
  MIC: 3.1 µg/mL
Pseudomonas aeruginosa; Pa-18 H8, D121, Mueller-Hinton agar, Table 9, read-out: MIC
  MIC: 0.4 µg/mL
Pseudomonas aeruginosa; Pa-19 A20229, Mueller-Hinton agar, Table 9, read-out: MIC
  MIC: 0.8 µg/mL
Pseudomonas aeruginosa; Pa-20 A20325, Mueller-Hinton agar, Table 9, read-out: MIC
  MIC: 1.6 µg/mL
Pseudomonas aeruginosa; Pa-21 A20601, Mueller-Hinton agar, Table 9, read-out: MIC
  MIC: 1.6 µg/mL
Pseudomonas aeruginosa; Pa-23 A20741, Mueller-Hinton agar, Table 9, read-out: MIC
  MIC: 1.6 µg/mL
Pseudomonas aeruginosa; Pa-24 A20896, Mueller-Hinton agar, Table 9, read-out: MIC
  MIC: > 100 µg/mL
Pseudomonas aeruginosa; Pa-25 A20897, Mueller-Hinton agar, Table 9, read-out: MIC
  MIC: 1.6 µg/mL
Pseudomonas aeruginosa; Pa-26 PS32, Mueller-Hinton agar, Table 9, read-out: MIC
  MIC: 12.5 µg/mL
Pseudomonas aeruginosa; Pa-28 C.P.H. 10527/72, Mueller-Hinton agar, Table 9, read-out: MIC
  MIC: 1.6 µg/mL
Pseudomonas aeruginosa; Pa-29 D122, Mueller-Hinton agar, Table 9, read-out: MIC
  MIC: 1.6 µg/mL
Pseudomonas aeruginosa; Pa-30 A20600, Mueller-Hinton agar, Table 9, read-out: MIC
  MIC: 1.6 µg/mL
Pseudomonas aeruginosa; Pa-31 A20594, Mueller-Hinton agar, Table 9, read-out: MIC
  MIC: 0.4 µg/mL
Pseudomonas aeruginosa; Pa-32 A20595, Mueller-Hinton agar, Table 9, read-out: MIC
  MIC: 1.6 µg/mL
Pseudomonas aeruginosa; Pa-33 A20598, Mueller-Hinton agar, Table 9, read-out: MIC
  MIC: 0.8 µg/mL
Pseudomonas aeruginosa; Pa-34 A20603, Mueller-Hinton agar, Table 9, read-out: MIC
  MIC: 0.8 µg/mL
Pseudomonas aeruginosa; Pa-36, Mueller-Hinton agar, Table 9, read-out: MIC
  MIC: 0.8 µg/mL
Pseudomonas aeruginosa; Pa-37 A20130, Mueller-Hinton agar, Table 9, read-out: MIC
  MIC: 1.6 µg/mL
Pseudomonas aeruginosa; Pa-38 A20349, Mueller-Hinton agar, Table 9, read-out: MIC
  MIC: 6.3 µg/mL
Pseudomonas aeruginosa; Pa-39 A20641, Mueller-Hinton agar, Table 9, read-out: MIC
  MIC: 0.8 µg/mL
Pseudomonas aeruginosa; Pa-41 A21227, Mueller-Hinton agar, Table 9, read-out: MIC
  MIC: 1.6 µg/mL
Pseudomonas aeruginosa; Pa-42 A21229, Mueller-Hinton agar, Table 9, read-out: MIC
  MIC: 12.5 µg/mL
Pseudomonas aeruginosa; Pa-43 A21233, Mueller-Hinton agar, Table 9, read-out: MIC
  MIC: 1.6 µg/mL
Pseudomonas aeruginosa; Pa-44 A21274, Mueller-Hinton agar, Table 9, read-out: MIC
  MIC: 1.6 µg/mL
Pseudomonas aeruginosa; Pa-51 A9910, Mueller-Hinton agar, Table 9, read-out: MIC
  MIC: 1.6 µg/mL
Pseudomonas aeruginosa; Pa-52 A9926, Mueller-Hinton agar, Table 9, read-out: MIC
  MIC: 3.1 µg/mL
Pseudomonas aeruginosa; Pa-53 A20126, Mueller-Hinton agar, Table 9, read-out: MIC
  MIC: 1.6 µg/mL
Pseudomonas aeruginosa; Pa-54 A20128, Mueller-Hinton agar, Table 9, read-out: MIC
  MIC: 3.1 µg/mL
Pseudomonas aeruginosa; Pa-55 A20227, Mueller-Hinton agar, Table 9, read-out: MIC
  MIC: 3.1 µg/mL
Pseudomonas aeruginosa; Pa-56 A20228, Mueller-Hinton agar, Table 9, read-out: MIC
  MIC: 1.6 µg/mL
Pseudomonas aeruginosa; Pa-57 A20546, Mueller-Hinton agar, Table 9, read-out: MIC
  MIC: 1.6 µg/mL
Pseudomonas aeruginosa; Pa-58 A20557, Mueller-Hinton agar, Table 9, read-out: MIC
  MIC: 3.1 µg/mL
Pseudomonas aeruginosa; Pa-59 A20574, Mueller-Hinton agar, Table 9, read-out: MIC
  MIC: 0.8 µg/mL
Pseudomonas aeruginosa; Pa-60 A20602, Mueller-Hinton agar, Table 9, read-out: MIC
  MIC: 1.6 µg/mL
Pseudomonas aeruginosa; Pa-61 A20726, Mueller-Hinton agar, Table 9, read-out: MIC
  MIC: 3.1 µg/mL
Pseudomonas aeruginosa; Pa-62 A21213, Mueller-Hinton agar, Table 9, read-out: MIC
  MIC: > 100 µg/mL
Pseudomonas aeruginosa; Pa-64 A21336, Mueller-Hinton agar, Table 9, read-out: MIC
  MIC: 0.8 µg/mL
Pseudomonas aeruginosa; Pa-65 A21428, Mueller-Hinton agar, Table 9, read-out: MIC
  MIC: 1.6 µg/mL
Pseudomonas aeruginosa; Pa-66 A21434, Mueller-Hinton agar, Table 9, read-out: MIC
  MIC: 3.1 µg/mL
Pseudomonas aeruginosa; Pa-67 A21509, Mueller-Hinton agar, Table 9, read-out: MIC
  MIC: 3.1 µg/mL
Pseudomonas aeruginosa; Pa-68 A21510, Mueller-Hinton agar, Table 9, read-out: MIC
  MIC: 3.1 µg/mL
Pseudomonas aeruginosa; Pa-69 A21587, Mueller-Hinton agar, Table 9, read-out: MIC
  MIC: 3.1 µg/mL
Pseudomonas aeruginosa; Pa-70 K-PS102 (KR-102), Mueller-Hinton agar, Table 9, read-out: MIC
  MIC: 1.6 µg/mL
